Measurements as given in patent US20200032271A1, “COMBINATION THERAPY WITH LIPOSOMAL ANTISENSE OLIGONUCLEOTIDES” (Bio-Path Holdings, Inc., priority 2016, published 2020).
[PEt] = P-ethoxy (ethyl phosphotriester) internucleoside linkage

Assay: Adverse events in study 2003-0578 (NCI CTCAE grading)
Text: Each participant who receives study drug will be closely monitored for AEs. An AE is any untoward medical occurrence associated with the use of a drug in humans, whether or not considered drug related. Adverse events include any signs, symptoms, illnesses, or diagnoses that appear or worsen during the course of the study. An AE may be an intercurrent illness, an injury, or any concomitant impairment of the participant's health. All AEs occurring at any time from the time of consent through the end of treatment visit will be reported regardless of the etiology of the event. The NCI's CTCAE v4.03 will be used for grading AEs.
The causal relationship to BP1001 IP or Das for all AEs will be assessed as follows: (1) definitely related—AEs clearly attributable to study regimen administration; (2) probably related—AEs for which there is a reasonable possibility of causal association to study regimen; (3) possibly related—AEs for which there is confounding by comorbidities, medications or other considerations but for which it is not unreasonable that the AE may have been caused by study regimen; or (4) not related—AEs that are considered clearly not causally related to study regimen, or for which there is a clear alternative explanation

Substance: BP1001: liposome-incorporated P-ethoxy antisense oligodeoxynucleotide (5′-ATATTTGGCGATGGCTTC-3′, SEQ ID NO: 1) specific to grb2 mRNA, in neutral DOPC liposomes (DNA, all [PEt], methylation of C not given here; incorporated in neutral DOPC liposomes)
- Hypovolemia ≥Grade 3, number of patients (monotherapy 10 mg/m^2 (n = 6)): 0
- Hypoxia ≥Grade 3, number of patients (monotherapy 10 mg/m^2 (n = 6)): 1
- Investigations ≥Grade 3, number of patients (monotherapy 10 mg/m^2 (n = 6)): 0
- Leukocytosis ≥Grade 3, number of patients (monotherapy 10 mg/m^2 (n = 6)): 2
- Metabolism and nutritional disorders ≥Grade 3, number of patients (monotherapy 10 mg/m^2 (n = 6)): 3
- Multi-organ failure ≥Grade 3, number of patients (monotherapy 10 mg/m^2 (n = 6)): 1
- Neoplasms benign, malignant, and unspecified (incl. cysts and polyps) ≥Grade 3, number of patients (monotherapy 10 mg/m^2 (n = 6)): 1
- Patients with AEs ≥Grade 3, number of patients (monotherapy 10 mg/m^2 (n = 6)): 4
- Penile Pain ≥Grade 3, number of patients (monotherapy 10 mg/m^2 (n = 6)): 0
- Platelet count decreased ≥Grade 3, number of patients (monotherapy 10 mg/m^2 (n = 6)): 0
- Pneumonia ≥Grade 3, number of patients (monotherapy 10 mg/m^2 (n = 6)): 2
- Psychiatric disorders ≥Grade 3, number of patients (monotherapy 10 mg/m^2 (n = 6)): 0
- Renal and urinary disorders ≥Grade 3, number of patients (monotherapy 10 mg/m^2 (n = 6)): 0
- Reproductive system and breast disorders ≥Grade 3, number of patients (monotherapy 10 mg/m^2 (n = 6)): 0
- Respiratory distress ≥Grade 3, number of patients (monotherapy 10 mg/m^2 (n = 6)): 2
- Respiratory failure ≥Grade 3, number of patients (monotherapy 10 mg/m^2 (n = 6)): 1
- Respiratory, thoracic, and mediastinal disorders ≥Grade 3, number of patients (monotherapy 10 mg/m^2 (n = 6)): 3
- Tumor lysis syndrome ≥Grade 3, number of patients (monotherapy 10 mg/m^2 (n = 6)): 0
- Vascular disorders ≥Grade 3, number of patients (monotherapy 10 mg/m^2 (n = 6)): 0
- AML progression, number of patients (monotherapy 20 mg/m^2 (n = 3)): 1
- Abdominal Pain ≥Grade 3, number of patients (monotherapy 20 mg/m^2 (n = 3)): 0
- Acidosis ≥Grade 3, number of patients (monotherapy 20 mg/m^2 (n = 3)): 0
- Acute kidney injury ≥Grade 3, number of patients (monotherapy 20 mg/m^2 (n = 3)): 0
- Asthenia ≥Grade 3, number of patients (monotherapy 20 mg/m^2 (n = 3)): 0
- Back Pain ≥Grade 3, number of patients (monotherapy 20 mg/m^2 (n = 3)): 0
- Blood and lymphatic system disorders ≥Grade 3, number of patients (monotherapy 20 mg/m^2 (n = 3)): 1
- Cardiac disorders ≥Grade 3, number of patients (monotherapy 20 mg/m^2 (n = 3)): 0
- Cataract ≥Grade 3, number of patients (monotherapy 20 mg/m^2 (n = 3)): 0
- Dyspnea ≥Grade 3, number of patients (monotherapy 20 mg/m^2 (n = 3)): 0
- Extremity Lower Edema ≥Grade 3, number of patients (monotherapy 20 mg/m^2 (n = 3)): 0
- Eye disorders ≥Grade 3, number of patients (monotherapy 20 mg/m^2 (n = 3)): 0
- Febrile neutropenia ≥Grade 3, number of patients (monotherapy 20 mg/m^2 (n = 3)): 0
- Gastrointestinal disorders ≥Grade 3, number of patients (monotherapy 20 mg/m^2 (n = 3)): 0
- General disorders and administration site conditions ≥Grade 3, number of patients (monotherapy 20 mg/m^2 (n = 3)): 0
- Hallucinations ≥Grade 3, number of patients (monotherapy 20 mg/m^2 (n = 3)): 0
- Heart failure ≥Grade 3, number of patients (monotherapy 20 mg/m^2 (n = 3)): 0
- Hepatic failure ≥Grade 3, number of patients (monotherapy 20 mg/m^2 (n = 3)): 0
- Hepatobiliary disorders ≥Grade 3, number of patients (monotherapy 20 mg/m^2 (n = 3)): 0
- Hypocalcemia ≥Grade 3, number of patients (monotherapy 20 mg/m^2 (n = 3)): 0
- Hypoglycemia ≥Grade 3, number of patients (monotherapy 20 mg/m^2 (n = 3)): 0
- Hypokalemia ≥Grade 3, number of patients (monotherapy 20 mg/m^2 (n = 3)): 0
- Hyponatremia ≥Grade 3, number of patients (monotherapy 20 mg/m^2 (n = 3)): 0
- Hypotension ≥Grade 3, number of patients (monotherapy 20 mg/m^2 (n = 3)): 0
- Hypovolemia ≥Grade 3, number of patients (monotherapy 20 mg/m^2 (n = 3)): 0
- Hypoxia ≥Grade 3, number of patients (monotherapy 20 mg/m^2 (n = 3)): 0
- Investigations ≥Grade 3, number of patients (monotherapy 20 mg/m^2 (n = 3)): 0
- Leukocytosis ≥Grade 3, number of patients (monotherapy 20 mg/m^2 (n = 3)): 1
- Metabolism and nutritional disorders ≥Grade 3, number of patients (monotherapy 20 mg/m^2 (n = 3)): 0
- Multi-organ failure ≥Grade 3, number of patients (monotherapy 20 mg/m^2 (n = 3)): 0
- Musculoskeletal and connective tissue disorders ≥Grade 3, number of patients (monotherapy 20 mg/m^2 (n = 3)): 0
- Neoplasms benign, malignant, and unspecified (incl. cysts and polyps) ≥Grade 3, number of patients (monotherapy 20 mg/m^2 (n = 3)): 0
- Patients with AEs ≥Grade 3, number of patients (monotherapy 20 mg/m^2 (n = 3)): 1
- Penile Pain ≥Grade 3, number of patients (monotherapy 20 mg/m^2 (n = 3)): 0
- Platelet count decreased ≥Grade 3, number of patients (monotherapy 20 mg/m^2 (n = 3)): 0
- Pneumonia ≥Grade 3, number of patients (monotherapy 20 mg/m^2 (n = 3)): 0
- Psychiatric disorders ≥Grade 3, number of patients (monotherapy 20 mg/m^2 (n = 3)): 0
- Renal and urinary disorders ≥Grade 3, number of patients (monotherapy 20 mg/m^2 (n = 3)): 0
- Reproductive system and breast disorders ≥Grade 3, number of patients (monotherapy 20 mg/m^2 (n = 3)): 0
- Respiratory distress ≥Grade 3, number of patients (monotherapy 20 mg/m^2 (n = 3)): 0
- Respiratory failure ≥Grade 3, number of patients (monotherapy 20 mg/m^2 (n = 3)): 0
- Respiratory, thoracic, and mediastinal disorders ≥Grade 3, number of patients (monotherapy 20 mg/m^2 (n = 3)): 0
- Tumor lysis syndrome ≥Grade 3, number of patients (monotherapy 20 mg/m^2 (n = 3)): 0
- Vascular disorders ≥Grade 3, number of patients (monotherapy 20 mg/m^2 (n = 3)): 0
- AML progression, number of patients (monotherapy 40 mg/m^2 (n = 3)): 3
- Abdominal Pain ≥Grade 3, number of patients (monotherapy 40 mg/m^2 (n = 3)): 0
- Acidosis ≥Grade 3, number of patients (monotherapy 40 mg/m^2 (n = 3)): 0
- Acute kidney injury ≥Grade 3, number of patients (monotherapy 40 mg/m^2 (n = 3)): 1
- Asthenia ≥Grade 3, number of patients (monotherapy 40 mg/m^2 (n = 3)): 0
- Back Pain ≥Grade 3, number of patients (monotherapy 40 mg/m^2 (n = 3)): 0
- Blood and lymphatic system disorders ≥Grade 3, number of patients (monotherapy 40 mg/m^2 (n = 3)): 1
- Cardiac disorders ≥Grade 3, number of patients (monotherapy 40 mg/m^2 (n = 3)): 0
- Cataract ≥Grade 3, number of patients (monotherapy 40 mg/m^2 (n = 3)): 0
- Dyspnea ≥Grade 3, number of patients (monotherapy 40 mg/m^2 (n = 3)): 1
- Extremity Lower Edema ≥Grade 3, number of patients (monotherapy 40 mg/m^2 (n = 3)): 0
- Eye disorders ≥Grade 3, number of patients (monotherapy 40 mg/m^2 (n = 3)): 0
- Febrile neutropenia ≥Grade 3, number of patients (monotherapy 40 mg/m^2 (n = 3)): 0
- Gastrointestinal disorders ≥Grade 3, number of patients (monotherapy 40 mg/m^2 (n = 3)): 0
- General disorders and administration site conditions ≥Grade 3, number of patients (monotherapy 40 mg/m^2 (n = 3)): 0
- Hallucinations ≥Grade 3, number of patients (monotherapy 40 mg/m^2 (n = 3)): 0
- Heart failure ≥Grade 3, number of patients (monotherapy 40 mg/m^2 (n = 3)): 0
- Hepatic failure ≥Grade 3, number of patients (monotherapy 40 mg/m^2 (n = 3)): 0
- Hepatobiliary disorders ≥Grade 3, number of patients (monotherapy 40 mg/m^2 (n = 3)): 0
- Hypocalcemia ≥Grade 3, number of patients (monotherapy 40 mg/m^2 (n = 3)): 0
- Hypoglycemia ≥Grade 3, number of patients (monotherapy 40 mg/m^2 (n = 3)): 0
- Hypokalemia ≥Grade 3, number of patients (monotherapy 40 mg/m^2 (n = 3)): 1
- Hyponatremia ≥Grade 3, number of patients (monotherapy 40 mg/m^2 (n = 3)): 0
- Hypotension ≥Grade 3, number of patients (monotherapy 40 mg/m^2 (n = 3)): 0
- Hypovolemia ≥Grade 3, number of patients (monotherapy 40 mg/m^2 (n = 3)): 0
- Hypoxia ≥Grade 3, number of patients (monotherapy 40 mg/m^2 (n = 3)): 0
- Investigations ≥Grade 3, number of patients (monotherapy 40 mg/m^2 (n = 3)): 0
- Leukocytosis ≥Grade 3, number of patients (monotherapy 40 mg/m^2 (n = 3)): 1
- Metabolism and nutritional disorders ≥Grade 3, number of patients (monotherapy 40 mg/m^2 (n = 3)): 1
- Multi-organ failure ≥Grade 3, number of patients (monotherapy 40 mg/m^2 (n = 3)): 0
- Musculoskeletal and connective tissue disorders ≥Grade 3, number of patients (monotherapy 40 mg/m^2 (n = 3)): 0
- Neoplasms benign, malignant, and unspecified (incl. cysts and polyps) ≥Grade 3, number of patients (monotherapy 40 mg/m^2 (n = 3)): 0
- Patients with AEs ≥Grade 3, number of patients (monotherapy 40 mg/m^2 (n = 3)): 3
- Penile Pain ≥Grade 3, number of patients (monotherapy 40 mg/m^2 (n = 3)): 0
- Platelet count decreased ≥Grade 3, number of patients (monotherapy 40 mg/m^2 (n = 3)): 0
- Pneumonia ≥Grade 3, number of patients (monotherapy 40 mg/m^2 (n = 3)): 0
- Psychiatric disorders ≥Grade 3, number of patients (monotherapy 40 mg/m^2 (n = 3)): 0
- Renal and urinary disorders ≥Grade 3, number of patients (monotherapy 40 mg/m^2 (n = 3)): 1
- Reproductive system and breast disorders ≥Grade 3, number of patients (monotherapy 40 mg/m^2 (n = 3)): 0
- Respiratory distress ≥Grade 3, number of patients (monotherapy 40 mg/m^2 (n = 3)): 0
- Respiratory failure ≥Grade 3, number of patients (monotherapy 40 mg/m^2 (n = 3)): 0
- Respiratory, thoracic, and mediastinal disorders ≥Grade 3, number of patients (monotherapy 40 mg/m^2 (n = 3)): 1
- Tumor lysis syndrome ≥Grade 3, number of patients (monotherapy 40 mg/m^2 (n = 3)): 0
- Vascular disorders ≥Grade 3, number of patients (monotherapy 40 mg/m^2 (n = 3)): 0
- AML progression, number of patients (monotherapy 60 mg/m^2 (n = 3)): 3
- Abdominal Pain ≥Grade 3, number of patients (monotherapy 60 mg/m^2 (n = 3)): 0
- Acidosis ≥Grade 3, number of patients (monotherapy 60 mg/m^2 (n = 3)): 0
- Acute kidney injury ≥Grade 3, number of patients (monotherapy 60 mg/m^2 (n = 3)): 0
- Asthenia ≥Grade 3, number of patients (monotherapy 60 mg/m^2 (n = 3)): 0
- Back Pain ≥Grade 3, number of patients (monotherapy 60 mg/m^2 (n = 3)): 0
